{"source": "patent US9795687B2", "about": "“Modularly assembled small molecules for the treatment of myotonic dystrophy type 1” (The Scripps Research Institute, priority 2013, dated 2017)", "test_system": "r(CUG)12", "test": "SPR binding kinetics to r(CUG)12", "procedure": "The binding of 2H-K4NMe to various RNAs including r(CUG)12, r(CAG)12, r(AU)12 and r(GC)δ was studied by surface plasmon resonance (SPR) spectrometry. […] In summary, 2H-K4NMe is selective for r(CUG)12 by ˜30-100-fold over the other RNAs studied (Table 2). In general, it has a faster association rate (kon) and a slower dissociation rate (koff) when binding to r(CUG)12 compared to the other RNAs.\nOn rates, off rates and Kobs values were measured using a ForteBio OctetRed spectrophotometer and Streptavidin SA dip-and-read biosensors (ForteBio). Sensors were pre-equilibrated in 1X Kinetics Buffer (ForteBio) prior to beginning measurements. 5′-Biotinylated r(CUG)12 was folded by heating in 1X Kinetics Buffer at 60° C. for 5 min followed by slow cooling to room temperature on the bench top. Measurements were completed by incubating sensors sequentially in 200 μL of: 1X Kinetics Buffer, 540 nM 5′-biotinylated RNA, 1X Kinetics Buffer, compound of interest or MBNL1 (varying concentrations; seven 1:2 dilutions in 1X Kinetics Buffer), and finally 1X Kinetics Buffer. Data were fit using ForteBio's Data Analysis 7.0 software. MBNL1 and II (monomer) data were fit using a 1:1 model. This model fits one analyte in solution binding to one binding site on the surface. 2H-K4NMe and 2H-4 data were fit using a 2:1 heterogeneous ligand model. This model fits the binding of one analyte in solution to two different binding sites on the surface. Kinetic parameters are calculated for both interactions.", "key": {"[1]": {"conditions": "r(CUG)12, two component binding isotherm"}}}
{"smiles": "C[C@@H](C(=O)N(C)[C@@H](C)C(=O)N(C)[C@@H](C)C(=O)N(C)[C@@H](C)C(=O)N[C@@H](CCCCNC(=O)CCCOc1cccc(-c2nc3cc(-c4nc5cc(N6CCN(C)CC6)ccc5[nH]4)ccc3[nH]2)c1)C(N)=O)N(C)C(=O)CCCOc1cccc(-c2nc3ccc(-c4nc5cc(N6CCN(C)CC6)ccc5[nH]4)cc3[nH]2)c1", "note": "[Compound 2H-K4NMe]", "values": [{"measurement": "binding to r(CUG)12, fold more tightly than MBNL1", "result": 5, "unit": "fold"}, {"measurement": "selectivity for r(CUG)12 over the other RNAs studied", "setting": "over r(CAG)12, r(AU)12, r(GC)8", "result": "30-100 fold"}, {"measurement": "koff rate, fold slower than H", "setting": "r(CUG)12", "result": 10, "unit": "fold"}, {"measurement": "kon rate, fold faster than H", "setting": "r(CUG)12", "result": 10, "unit": "fold"}, {"measurement": "on rate, fold faster than MBNL1's", "setting": "r(CUG)12", "result": 79, "unit": "fold"}, {"measurement": "koff (1)", "setting": "r(CUG)12, SD ≦±10%, two component fit for dimers, one component for H monomer and MBNL1", "result": 0.00343, "unit": "s⁻¹"}, {"measurement": "Kd", "setting": "r(CUG)12, read-out: Kobs (1)", "result": 13.1, "unit": "nM"}, {"measurement": "koff (2)", "setting": "[1]", "result": 0.05, "unit": "s⁻¹"}, {"measurement": "kon (2)", "setting": "[1]", "result": 1870, "unit": "M⁻¹ s⁻¹"}, {"measurement": "kon (1)", "setting": "r(CUG)12, two component fit for dimers, one component for H monomer and MBNL1", "result": 261000, "unit": "M⁻¹ s⁻¹"}]}
